Values after ≈ are worked out from the molar mass of the structure shown. Where two headings read alike, the source gives them in different places. No end group written: not given here.

The source of these data is article PMC12748266, “Testing antimicrobial peptides inhibiting protein synthesis in living E. coli and K. pneumoniae using bio-orthogonal non-canonical amino-acid tagging” (Frontiers in Microbiology, 2025).

Assay [1] concerns E. coli ATCC 25922. Description: microbe, parasite or virus in culture. Particulars: for MIC: read-out: MIC. In kind it is cell-based, Escherichia coli. The protocol: […] Each peptide, diluted at a starting concentration of 128 μM in supplemented M9 medium was added to the first column of wells of a 96-well round-bottom microplate (Sarstedt, Milan, Italy). Serially two-fold dilution (1:1) were performed across subsequent wells to a final volume of 50 μL. 50 μL of bacterial suspension (1 × 10^7 CFU/mL) were then added to each well, to a final bacterial concentration in each well to 5 × 10^6 CFU/mL per well. Untreated bacterial culture was used as growth control, while 100 μL of uninoculated supplemented M9 medium was used to verify the sterility of the medium. The plates were sealed with parafilm to minimize evaporation and incubated at 37 °C for 18 h. The minimum inhibitory concentration (MIC) was visually determined as the lowest peptide concentration in a well with no visible bacterial growth. Data are reported as the mode of at least three independent experiments.

The test system of assay [2] is E. coli ATCC 25922. The assay can be described thus: Post-antibiotic effect (PAE), growth kinetics after washout. Format: cell-based, Escherichia coli. The note with it: 30 min treatment at MIC. The protocol:
An overnight culture of E. coli ATCC 25922, prepared as described above, was diluted to a final concentration of 5 × 10^6 CFU/mL and then incubated at 37 °C for 30 min in the presence or absence of each peptide or antibiotic at various concentrations, with a final volume of 1 mL. To measure the post-antibiotic effect (PAE) of antimicrobials, the compounds were removed from the supernatant by centrifugation (16,000 × g for 5 min) and bacteria were washed and resuspended in 1 mL of fresh supplemented MHB medium, to promote faster growth visible as increased absorbance. 200 μL of each sample was then transferred to a 96-well round-bottom microplate (Sarstedt, Milan, Italy), which was then placed in a Nanoquant Infinite-M200Pro plate reader with stable temperature at 37 °C. Each sample was surrounded by water-filled wells to reduce its own evaporation. Optical density at 600 nm was then recorded for each sample every hour for up to 18 h. PAE was calculated according to [Holfeld et al. (2018)] as the difference between the time needed for a cell culture incubated with an antibiotic substance to reach half-maximum absorbance of the control culture and the time that the control culture needed to reach half-maximum absorbance of the stationary phase. According to this definition, the PAE of each compound (expressed as time) was calculated based on the OD₆₀₀ value of its respective replicate, which corresponded to half of the maximum absorbance reached by the control culture in the stationary phase (at 18 h). The mean PAE values (PAE in hours) of each compound, were obtained by averaging the times from the three independent experiments.

In assay [3] the test system is K. pneumoniae ATCC 700603. Description: BONCAT: HPG incorporation into newly synthesized proteins, flow cytometry. In kind it is cell-based, Klebsiella pneumoniae. The note with it: compound at MIC; for Fluorescence Intensity (% of Control): 10 min pre-incubation then 30 min HPG, untreated = 100%, mean, n ≥ 3. The protocol: We used a modified protocol from [Lindivat et al. (2020)]. Briefly, overnight cultures of E. coli ATCC 25922 or K. pneumoniae ATCC 700603, prepared as described above, were diluted to a final concentration of 5×10^6 CFU/mL and allowed to adjust for 30 min at 37 °C. The culture was then incubated at 37 °C in the dark for 10 or 30 min in the presence or absence of each peptide or antibiotic at various concentrations, with a final volume of 1 mL. At this point, only in certain specified experimental assays, the compounds were removed from the supernatant by centrifugation (16,000 × g for 5 min) and bacteria were washed and resuspended in fresh supplemented M9 medium. Then, 32 μL of a 500 μM homopropargylglycine (HPG) solution were added to each sample, resulting in a final concentration of 16 μM in a finale volume of 1 mL. Also included in each assay were two untreated controls containing only bacteria and bacteria treated with 16 μM HPG alone, respectively. All samples were then incubated at 37 °C in the dark for 30 min. After incubation, samples were washed once with 1X filtered Phosphate Buffered Saline (PBS) (centrifuged at 16,000 x g for 5 min) and resuspended in PBS. After washing, samples were fixed with formaldehyde (Sigma Aldrich, USA) to a final concentration of 3% in 1 mL for 1 h at 25 °C. Subsequently, the samples were centrifuged at 16,000 x g for 5 min and resuspended in 1 mL of PBS. If not analysed immediately, the fixed samples were stored at 4 °C prior to performing the click chemistry reaction. Samples were centrifugated at 16,000 x g for 5 min and bacteria cells were dehydrated by ethanol that was added sequentially to achieve a final concentration of 50% (v/v) (3 min of incubation), 80% (v/v) (3 min of incubation), and 95% (v/v) (3 min of incubation). After dehydration, the samples were centrifugated (16,000 × g, 5 min) and resuspended in PBS. For cell analysis by SDS-PAGE, the following variations were implemented: bacterial cells were diluted in supplemented M9 medium to a final density of ~ 1 × 10^9 CFU/mL, and HPG was added to the samples at a final concentration of 160 μM. Bacteria were incubated with HPG for 0, 15, 30, 60, or 120 min at 37 °C in the dark.
The click reaction was carried out according to [Rostovtsev et al. (2002)]. 15 μL of a pre-mix solution (prepared as described above) were added to each sample containing fixed bacteria that had incorporated HPG (30 μL of pre-mix solution in case of samples prepared for SDS-PAGE analysis), resulting in the following final concentrations in each sample: 0.1 mM copper sulfate, 0.5 mM Tris (3-hydroxypropyltriazolylmethyl)amine (THPTA), and 2.5 μM Alexa Fluor azide 488. Additionally, 50 μL of freshly prepared 100 mM sodium ascorbate and 50 μL of 100 mM aminoguanidine were added (100 μL in case of samples prepared for SDS-PAGE analysis), bringing the final volume to 1 mL. The samples were gently inverted once to mix and incubated for 30 min in the dark at 25 °C. […]
An overnight culture of E. coli ATCC 25922, or of K. pneumoniae ATCC 700603, prepared as described above, was diluted to a final concentration of 5 × 10^6 CFU/mL and allowed to adjust for 30 min at 37 °C under shaking. Membrane permeabilization of bacteria was then assessed by incubating bacteria at 37 °C, in a final volume of 1 mL, with varying concentrations of each peptide or antibiotic used for the BONCAT assay. […] The fluorescence of untreated cells was used to establish the gating for positive PI-stained cells. […]
In general terms: In flow cytometry, cells or beads pass a laser one at a time.

The mark [4] stands for this setting: Escherichia coli, ATCC25922, 18 h, supplemented M9 medium, 5 × 10^6 CFU/mL, 18 h, 37 °C, visual, mode of at least three experiments.
[5] abbreviates: OD600 every hour for 18 h in MHB, mean ± SD, n = 3.

As to `CO[C@H]1/C=C/O[C@@]2(C)Oc3c(C)c(O)c4c(O)c(c(/C=N/N5CCN(C)CC5)c(O)c4c3C2=O)NC(=O)/C(C)=C\C=C\[C@H](C)[C@H](O)[C@@H](C)[C@@H](O)[C@@H](C)[C@H](OC(C)=O)[C@@H]1C` [RIF, Rifampicin], the MIC in the assay on E. coli ATCC 25922 [1] (setting [4]) worked out at 2 µM (≈ 1.65 µg/mL). Besides, in the assay with E. coli ATCC 25922 [2] (setting [5]), the PAE amounted to 1.6 ± 1.1 h. Moreover, the Reduction in fluorescence result in assay [3] (10 min + 30 min HPG) is “did not affect fluorescence”. The “Fluorescence Intensity (% of Control)” value in assay [3] is recorded as 87 % of Control.
Consider RRIRPRPPRLPRPRPR [Bac7(1–16)], for which the MIC with E. coli ATCC 25922 [1] (Mueller Hinton, 2,5x10^5 CFU/mL, 18 h, 37 °C, mode of at least three experiments) stood at 1 µM; with E. coli ATCC 25922 [1] (Mueller Hinton, 5x10^6 CFU/mL, 18 h, 37 °C, mode of at least three experiments), 2 µM; in the assay with E. coli ATCC 25922 [1] (supplemented M9 medium, 5 × 10^6 CFU/mL, 18 h, 37 °C, visual, mode of at least three experiments), 1 µM. The compound further yielded a PAE in the assay on E. coli ATCC 25922 [2] (setting [5]) of 1.7 ± 0.9 h. For the same compound, in assay [3], the “Fluorescence Intensity (% of Control)” value is 18 % of Control.
`O=C(N[C@H](CO)[C@H](O)c1ccc([N+](=O)[O-])cc1)C(Cl)Cl` [CHL, Chloramphenicol]: the MIC in the assay with E. coli ATCC 25922 [1] (Escherichia coli, ATCC25922, 18 h, Mueller Hinton, 2,5x10^5 CFU/mL, 18 h, 37 °C, mode of at least three experiments) is 16 µM (≈ 5.17 µg/mL); with E. coli ATCC 25922 [1] (Escherichia coli, ATCC25922, 18 h, Mueller Hinton, 5x10^6 CFU/mL, 18 h, 37 °C, mode of at least three experiments), 64 µM (≈ 20.7 µg/mL); with E. coli ATCC 25922 [1] (setting [4]), 32 µM (≈ 10.3 µg/mL). Besides, the “Fold increase in MIC on 20-fold increase in cell density” value in the assay with E. coli ATCC 25922 [1] (MHB, 5×10^6 vs 2,5×10^5 CFU/well) is 4-8 fold. Moreover, the “PAE” value with E. coli ATCC 25922 [2] is “about half an hour”; with E. coli ATCC 25922 [2] (setting [5]) it was 0.6 ± 1.2 h.
Take “RRIRPRPPRLPRPRPRPLPFPRPGPRPIPRPLPFP [Bac7(1–35)]”: the MIC with E. coli ATCC 25922 [1] (ATCC 25922, 18 h) stood at 1 µM. The “PAE” value with E. coli ATCC 25922 [2] was determined as 3 h; in the assay with E. coli ATCC 25922 [2] (setting [5]), 2.9 ± 0.5 h. Further, in assay [3], the “Fluorescence Intensity (% of Control)” value is on record as 6 % of Control.
